Entries after “also recorded” stand apart in the source; their conditions may differ.
Assays:
[1] = target: T1, fibrin (acellular clot phantoms) (Homo sapiens, UniProt P02671+P02675+P02679); experiment: Binding of 99mTc monomeric construct to acellular clot phantoms (Scatchard plot)
T1 construct: 100 μL of human plasma was quickly mixed with 3 unit of thrombin solution; from tissue; host or cells: human plasma clotted with thrombin
T1 sequence (P02671 20-644 isoform P02671-2 limits assumed): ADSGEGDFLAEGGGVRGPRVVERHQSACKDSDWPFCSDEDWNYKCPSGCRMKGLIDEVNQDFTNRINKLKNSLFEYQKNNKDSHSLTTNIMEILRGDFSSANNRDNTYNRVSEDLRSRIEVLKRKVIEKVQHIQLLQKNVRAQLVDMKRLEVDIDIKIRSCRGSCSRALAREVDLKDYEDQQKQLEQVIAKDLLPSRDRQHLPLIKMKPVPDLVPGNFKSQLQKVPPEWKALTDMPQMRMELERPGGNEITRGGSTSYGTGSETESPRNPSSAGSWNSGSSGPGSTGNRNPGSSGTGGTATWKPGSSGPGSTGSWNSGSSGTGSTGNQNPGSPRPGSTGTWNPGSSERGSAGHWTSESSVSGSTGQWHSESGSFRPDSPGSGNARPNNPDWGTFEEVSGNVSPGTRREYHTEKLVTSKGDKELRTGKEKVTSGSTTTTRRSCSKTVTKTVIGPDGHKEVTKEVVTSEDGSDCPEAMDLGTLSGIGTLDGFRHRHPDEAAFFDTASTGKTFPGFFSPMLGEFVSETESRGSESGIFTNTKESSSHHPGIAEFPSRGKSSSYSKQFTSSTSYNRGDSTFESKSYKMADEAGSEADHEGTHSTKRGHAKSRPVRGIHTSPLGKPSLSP
T1 sequence (P02675 45-491 limits assumed): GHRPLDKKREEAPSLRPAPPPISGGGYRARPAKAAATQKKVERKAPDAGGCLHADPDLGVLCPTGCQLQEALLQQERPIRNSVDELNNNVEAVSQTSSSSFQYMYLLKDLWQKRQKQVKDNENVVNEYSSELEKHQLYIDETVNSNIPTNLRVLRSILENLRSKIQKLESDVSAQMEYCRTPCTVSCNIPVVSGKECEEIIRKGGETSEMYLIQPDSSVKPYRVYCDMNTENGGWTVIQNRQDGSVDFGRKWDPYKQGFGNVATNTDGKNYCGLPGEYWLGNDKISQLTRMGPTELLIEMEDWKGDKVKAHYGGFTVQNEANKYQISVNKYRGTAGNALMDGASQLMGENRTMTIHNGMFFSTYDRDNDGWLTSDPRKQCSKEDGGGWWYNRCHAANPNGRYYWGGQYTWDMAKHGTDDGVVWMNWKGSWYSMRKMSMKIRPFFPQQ
T1 sequence (P02679 27-437 isoform P02679-2 limits assumed): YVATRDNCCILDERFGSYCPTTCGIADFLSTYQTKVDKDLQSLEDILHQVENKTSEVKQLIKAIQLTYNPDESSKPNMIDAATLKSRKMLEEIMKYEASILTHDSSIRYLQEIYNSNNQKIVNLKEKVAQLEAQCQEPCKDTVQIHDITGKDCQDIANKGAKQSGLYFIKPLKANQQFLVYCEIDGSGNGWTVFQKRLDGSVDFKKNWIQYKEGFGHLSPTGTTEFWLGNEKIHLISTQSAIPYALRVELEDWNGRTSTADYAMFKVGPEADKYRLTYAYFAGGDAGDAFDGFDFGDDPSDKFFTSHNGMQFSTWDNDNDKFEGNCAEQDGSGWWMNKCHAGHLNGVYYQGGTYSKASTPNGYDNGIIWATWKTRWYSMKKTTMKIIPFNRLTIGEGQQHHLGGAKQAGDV
Method: Clot phantoms were generated using a typical procedure wherein 100 μL of human plasma was quickly mixed with 3 unit of thrombin solution. The resulting solution was then transferred into a plastic cylinder tube. Once clots were formed, they were placed each in 4 mL 0.1 M PBS buffer, pH7.0 solution.
The fibrin-binding monomer construct labeled with ^99mTc (10 mCi/350 μg) was prepared and analyzed by TLC as described in the examples above. The construct was diluted to generate a dilution series comprising 1, 5, 10, 15, 25, and 30 μg peptide construct in a total volume of 0.5 mL 0.1 M PBS at pH 7.4.
The monomeric construct was then combined with clot phantoms and incubated for 30 min at 37° C. in a water bath. Clot phantoms were separated from the solution by centrifugation device, and radioactivity was measured in the clot and the supernatant using a calibrated dosimeter. The experiment was repeated for three times and data were analyzed by Scatchard plot and regression analysis (FIG. 3). […] The dissociation constant (Kd) and the number of binding sites per clot were also determined.

[2] = system: fibrin clots; experiment: Ex vivo LVAD flow study using a mock loop; assay type: binding; details: 10,000 RPM, 6 L/min, 2 minutes, 50:50 plasma:PBS, 0.5 mCi
Method: The high shear (10,000 RPM) and high flow (6 L/min) of the LVAD, which is required to pump the entire circulating blood volume of the patient every minute, places severe demands on the binding affinity and clot retention of the nuclear probe. […] The ½″ plastic tubing circuit was filled with a 50:50 human plasma:PBS mixture (200 ml). Uniform fibrin clots were secured with a highly porous, thin gauze netting within a plastic ½″ chamber immediately proximal to the LVAD inlet secured. ^99mTc-F1A or ^99mTc-F4A were injected into the mock loop and allowed to target the clots at the full flux rate for 2 minutes.
Ex vivo LVAD flow study using a mock loop: A LVAD (Heartmate II) driven by a computer-controlled console was inserted into a 200 ml mock flow loop comprised of ½″ plastic tubing interconnecting a PBS/Fresh Plasma (50:50) reservoir, an injection port, a media drainage port, and an inline ½″ plastic chamber. Uniform fibrin clots produced by mixing fibrinogen, thrombin, and calcium and aged 24 hours were secured within the inline chamber using a highly porous, single thread layer of cotton gauze. […] Radioactive circulating plasma/PBS was drained and replaced with PBS, which circulated for 2 minutes to remove unbound radioactivity. Clot radioactivity was counted in a calibrated gamma well counter and the results adjusted for decay.

[3] = 99mTc label retention with excess cysteine, clot phantoms (Example 5); assay type: physicochemical; details: 0.25 mg cysteine in 0.5 mL PBS, 120 min, 37° C.
Method: (§1) In a parallel experiment, binding of the fibrin-binding monomeric construct to acellular clot phantoms in the presence of excess cysteine, or in the presence of 50% serum was also tested. For excess cysteine conditions, 0.25 mg of cysteine in 0.5 mL PBS was also combined with the monomeric construct and clot phantoms. The experiment was conducted as described above, and incubated for 120 min at 37° C. in a water bath. […] Cys is used to test the stability of the metal on the agent, and binding of the agent without the metal would look like lower binding. Instability and loss of the metal in the presence of serum could have accounted for the lower binding of the monomeric peptide, but the metal was stable. […] Thus the peptide binding was interfered with by off-target association with something in serum, likely albumen. This was consistent with previous reports describing the serum binding of the monomeric fibrin-binding peptide.

[4] = target: T2, fibrin clot (Homo sapiens, UniProt P02671+P02675+P02679); experiment: Plasma interference on fibrin clot binding (50:50 plasma:PBS)
T2 construct: admixing 100 μl of fresh human plasma with 3 units thrombin (Sigma Chemical); from tissue; host or cells: fresh human plasma clotted with thrombin (Sigma Chemical)
T2 sequence (P02671 20-644 isoform P02671-2 limits assumed): T1 sequence (P02671 20-644 isoform P02671-2 limits assumed)
T2 sequence (P02675 45-491 limits assumed): T1 sequence (P02675 45-491 limits assumed)
T2 sequence (P02679 27-437 isoform P02679-2 limits assumed): T1 sequence (P02679 27-437 isoform P02679-2 limits assumed)
Method: (§2) Acellular fibrin clot assays of probe affinity, radiolabel stability, and plasma interference: Acellular fibrin clots were used: 1) to characterize the binding affinity of ^99mTc-F1A and ^99mTc-F4A, 2) to assess the stability of ^99mTc chelation, and 3) to evaluate the extent of plasma interference of fibrin binding. Specifically, uniform clots were produced by quickly admixing 100 μl of fresh human plasma with 3 units thrombin (Sigma Chemical). The mixture was pipetted into uniform cylindrical plastic tubes. Once formed, clots were washed repeatedly in 0.1 M PBS buffer (pH 7.0) then stored in same until use at 4° C.
Assessment of ^99mTc-F1A and ^99mTc-F4A radiolabel stability and plasma interference: Radiolabeled F1A and F4A were bound to clots in the presence of marked excess cysteine to evaluate the stability of the ^99mTc label in triplicate.^49 99mTc-F1A or ^99mTc-F4A (20 μCi) supplemented with 0.1 M PBS pH 7.4 (total volume of 0.5 ml) were incubated with fibrin clot samples at 37° C. for 30 minutes. Similarly, the 0.1 M PBS buffer diluted 50% with fresh human plasma (total volume of 0.5 ml) was used to assess potential matrix interference on radiolabeled peptide binding in triplicate. In both instances, fibrin clots were separated from unbound radioactivity by repeated centrifugation, washed, then counted in a calibrated well counter (Wizard 3, Perkin Elmer).

[5] = target: T1, fibrin (acellular clot phantoms); experiment: Clot phantom binding in presence of 50% serum (Example 5)
Method: as §1

[6] = target: T2, fibrin clot; experiment: Fibrin binding affinity, acellular fibrin clot assay (Hill slope model); details: uniform fibrin clots in PBS, read-out: dissociation constant (Kd)
Method: as §2
Fibrin binding affinity: ^99mTc-F1A or ^99mTc-F4A (20 μCi) were incubated with the clot samples at 37° C. for 30 minutes with 1, 5, 10, 15, 25, and 30 μg cold monomer supplemented with 0.1 M PBS pH 7.4 to bring each test volume total to 0.5 ml. The fibrin clots were separated from unbound radioactivity by repeated centrifugation and washing then counted in a calibrated well counter (Wizard 3, Perkin Elmer). Results, adjusted for decay, were used to estimate dissociation constant (kd) using the Hill slope model, Y=Bmax*X^h/(Kd^h+X^h) (MatLab). Total fibrin concentration was estimated from plasma fibrinogen estimated to be 0.735 nmoles per clot.

binding site per clot [1]: 8.48E+14
binding site per mg [1]: 1.21E+15
effect of excess cysteine on coupling of the 99mTc radiolabel [3]: did not impact the secure coupling
binding of labeled peptide to clot in presence of 50% serum [5]: greatly diminished
Kd [6]: ~10.2 µM
Substance: 99mTc-labeled monomer: fibrin homing peptide QWECPYGLCWIQ linked through PEG2 spacer to technetium chelating sequence HHE [^99mTc-F1A]
clot binding and retention in LVAD mock loop [2]: very low signal level; also recorded: very close to background level counts
fibrin clot binding in 50:50 plasma:PBS versus PBS [4]: severely compromised; also recorded: dramatically reduced

Reference: patent US11052163B2, “Homing agents” (Washington University, priority 2013, dated 2021)
